In patent publication EP0252983B1, “SALTS OF N-(VINYLOXIETHYL)DITHIOCARBAMIC ACID, METHOD OF OBTAINING THEREOF AND […] ON THEM” (priority 1985, dated 1987):

Tests used:
Wurzelfäule von Gurken = test: Cucumber root rot test in treated non-sterile soil; type: in vivo
Text: Man nimmt 100 g unsterilen Boden, enthaltend 1 Teil Humus, 1 Teil Rasenboden, 1 Teil Sand, gibt darin ein Präparat, das Zink-bis-(N-vinyloxyäthyldithiocarbamat) ausgehend von 200 kg/ha Wirkstoff enthält.
Das Präparat wird wie folgt hergestellt: Einer gesättigten Lösung des genannten Salzes in Azeton gibt man einige Tropfen Emulgiermittel (hydroxyäthylierte Alkylphenole) zu und verdünnt mit Wasser. Innerhalb von 7 bis 8 Tagen begießt man dann bodenhaltige Gefäße mit Wasser, bis der Boden in einen Zustand gebracht wird, der 60% der vollen Wasseraufnahmekapazität des Feldes beträgt. Nach dieser Zeit erfolgt die Aussaat von Gurkensamen, eingequollen im voraus in einer 0,1%igen KMn04-Lösung innerhalb von 2 Stunden. In jedes Gefäß werden je 10 Samen auf eine Tiefe von 1 bis 1,5 cm gesät. Nach 7 bis 9 Tagen berücksichtigt man die Keimungsfähigkeit von Samen, dann bestimmt man nach 3 Tagen den Befallumfang von Pflanzen durch Wurzelfäule, hervorgerufen durch einen Erregerkomplex. Die Versuche werden viermal wiederholt, als Vergleichsmuster dient Milon. Die Prüfergebnisse zeigt Tabelle 9.

Penicillium chrysogenum = test: Mycelial growth inhibition on agar (contact activity); type: cell-based; conditions: Würzeagar
Method: (§1) Die Prüfungen werden nach dem Verfahren zur Ermittlung der Kontaktaktivität durchgeführt. Man verwendet das in Wasser gelöste Kalium-N-(vinyloxyäthyl)dithiocarbamat, führt es in ein Nährmedium ein und vergießt auf Petri-Schalen. Nach 24 Stunden wird mit Pilzmyzelium nach einem Stichverfahren geimpft. Dann temperiert man die Schalen innerhalb von 5 Tagen bei einer zwischen 24 und 26 °C liegenden Temperatur und mißt den Durchmesser von Pilzkolonien, ermittelt den Prozentsatz der Hemmung des Myzelwachstums (S) ausgehend von Angaben am 5. Tag nach der Abbott-Formel [drawing 13] worin dc für den Durchmesser der Pilzkolonien, de für den Durchmesser von Pilzkolonien in der Schale stehen, wo ein die zu prüfenden Stoffe enthaltendes Medium vorhanden ist. Dieses Verfahren zur Ermittlung der mikrobiologischen Aktivität ist in anderen Beispielen verwendet.
(§2) Die Pilzkulturen werden auf Würzeagar gezüchtet. Ergebnisse, erhalten bei der Prüfung der fungiziden Aktivität gegen reine Kulturen von Mikroorganismen, welche Bioschädigungen hervorrufen, sind in der Tabelle 1 dargestellt.

Acremonium cowum = test: as above; type: cell-based; conditions: Würzeagar
Method: as §1, §2

[1] = test system: Cladosporium cladosporioides; test: as above; type: cell-based; conditions: Würzeagar
Method: as §1, §2

Cladosporium resinae = test: as above; type: cell-based; conditions: Würzeagar
Method: as §1, §2

Geotrichum candidum Link = test: as above; type: cell-based; conditions: Würzeagar
Method: as §1, §2

Acremonium charticola = test: as above; type: cell-based; conditions: Würzeagar
Method: as §1, §2

Oidium Sp. = test: as above; type: cell-based; conditions: Würzeagar
Method: as §1, §2

Walrotiela subiculesa = test: as above; type: cell-based; conditions: Würzeagar
Method: as §1, §2

Penicillium charlesii = test: as above; type: cell-based; conditions: Würzeagar
Method: as §1, §2

Larven von Fichtenböcken = test: Insecticidal activity, topical application to larvae; type: in vivo, Fichtenböcke; conditions: 10%ige Lösung
Text: Die hohe insektizide Aktivität von Kalium-N-(vinyloxyathyl)dithiocarbamat und Zink-bis-(N-vinyloxyathyl- dithiocarbamat) wurde in Versuchen an Larven von Fichtenböcken nachgewiesen. Geprüft wurden die 10%igen wäßrigen (oder alkoholischen) Lösungen, welche auf die Kopfbrust von Larven aufgebracht wurden. In Versuchen standen je 20 Larven zur Verfügung. Die Versuche wurden dreimal wiederholt. Die Mortalität wurde nach 1, 24 und 48 Stunden ermittelt. Die insektizide Aktivität der erfindungsgemäßen Stoffe ist bedeutend höher als die von Chlorophos.
Die Prüfungen auf insektizide Aktivität werden an Larven von Fichtenböcken durchgeführt. Geprüft werden eine 10%ige wäßrige Lösung von Kalium-N-(vinyloxyäthyl)dithiocarbamat und eine 10%ige alkoholische Lösung von Zink-bis-N-(vinyloxyathyldithiocarbamat). In jedem Versuch stehen je 20 Larven zur Verfügung. Die Mortalität wird nach 1, 24 und 48 Stunden ermittelt. Die zu prüfenden Lösungen werden auf die Kopfbrust von Larven aufgebracht.

Aspergillus niger = test: Mycelial growth inhibition on agar (contact activity); type: cell-based; conditions: Wirkstoffkonzentration 0,003 %, Würzeagar
Fusarium moniliforme = test: as above; type: cell-based; conditions: Wirkstoffkonzentration 0,003 %; Würzeagar; Tabelle 7
Method: as §1
(§3) Tabelle 2 zeigt die Angaben für die fungizide Aktivität von Kalium-N-(vinyloxyäthyl)dithiocarbamat und bekannten wirksamen Fungiziden Poly arbazin und TMTD. Der zu prüfende Stoff wurde im Laufe der Versuche in Wasser aufgelöst, und die Kulturen wurden auf einem Kartoffel-Glukose-Nährmedium gezüchtet.

Fusarium sambucinum = test: as above; type: cell-based; conditions: Wirkstoffkonzentration 0,003 %; Würzeagar; Tabelle 7
Method: as §1, §3

[2] = Acute toxicity (LD50) in mice; type: in vivo, weißen Mäusen; conditions: perorale Applikation an weißen Mäusen
[3] = Solubility in water (descriptive); type: physicochemical
Paecilomyces varioti = test: Mycelial growth inhibition on agar (contact activity); type: cell-based; conditions: Wirkstoffkonzentration 0,003 %; Würzeagar; Tabelle 8
Method: as §1

Penicillium funiculosum = test: as above; type: cell-based; conditions: Wirkstoffkonzentration 0,003 %; Würzeagar; Tabelle 8
Method: as §1

Stereum hirsutum = test: as above; type: cell-based; conditions: Wirkstoffkonzentration 0,003 %; Würzeagar; Tabelle 8
Method: as §1

Escherichia = test: Bactericidal activity on agar (concentration of complete growth inhibition); type: cell-based; conditions: % bezogen auf den Wirkstoff; am 5. Tag
Method: (§4) Geprüft wird die bakterizide Aktivität von Kalium-, Natrium-, Zink- und Kupfersalzen der N-(Vinyloxyäthyl)dithiocarbamidsäure gegen Bakterien der Gattungen Bacillus, Micrococcus, Pseudomonas, Escherichia und Xantomonas.
(§5) Man stellt wäßrige Stofflösungen verschiedener Konzentration her, die so berechnet werden, daß die Stoffkonzentration in der Petri-Schale bei der Gabe von 1 ml Lösung in das geschmolzene Nährmedium (45 bis 50 °C) zwischen 0,003 und 25 % (bezogen auf den Wirkstoff) schwankt. Nach 18 bis 24 Stunden bringt man auf die Oberfläche des Nährmediums 0,1 ml wäßrige Suspension eintägiger reiner Kulturen von Bakterien auf und verteilt sie gleichmäßig. In Kontrollschalen verteilt sich 0,1 ml Wasser über die Oberfläche des Nährmediums. Die Inkubation erfolgt bei 37 °C innerhalb von 5 Tagen. Die Wirksamkeit der Stoffe wird nach dem Auftreten des Bakterienwachstums auf der Oberfläche des Nährmediums eingeschätzt. Die Prüfergebnisse sind in der Tabelle 13 dargestellt.

Micrococcus = test: as above; type: cell-based; conditions: % bezogen auf den Wirkstoff; am 5. Tag
Method: as §4, §5

Pseudomonas = test: as above; type: cell-based; conditions: % bezogen auf den Wirkstoff; am 5. Tag
Method: as §4, §5

Bacillus = test: as above; type: cell-based; conditions: % bezogen auf den Wirkstoff; am 5. Tag
Method: as §4, §5

Sphaeropsis malorum = test: Mycelial growth inhibition on agar (contact activity); type: cell-based; conditions: Wirkstoffkonzentration 0,003 %; Würzeagar; Tabelle 7
Method: as §1
(§6) Als Nährmedium dient Würzeagar.

Rhizoctonia solani = test: as above; type: cell-based; conditions: Wirkstoffkonzentration 0,003 %; Würzeagar; Tabelle 7
Method: as §1
Die fungizide Aktivität von Zink-bis-(N-vinyloxyäthyldithiocarbamat) gegen reine Kulturen von Pilzen Fusarium moniliforme, Fusarium sambucinum, Aspergillus niger, Rhizoctonia solani, Cladosporium resinae, Cladosporium cladosporioides, Acremonium cowum, Acremonium charticola, Penicillium chrysogenum, Penicillium charlesii Smith, Penicillium funiculosum, Geotrichum candidum Link, Walrotiela subiculesa, Oidium sp., Paecilomyces varioti, Stereum hirsutum wird gemäß Beispiel 8 untersucht.
as §6

Zink-bis-(N-vinyloxyäthyldithiocarbamat)
Entwicklung von Wurzelschimmel vermindert sich gegenüber Kontrolle (Wurzelfäule von Gurken; Aufzucht von Gurken): Ilfache | Samenkeimung steigt gegenüber Kontrolle (Wurzelfäule von Gurken; Aufzucht von Gurken): 11% | Samenkeimung steigt gegenüber Milon (Vergleichmuster) (Wurzelfäule von Gurken; Aufzucht von Gurken): 15% | Keimungshäufigkeit in % (Wurzelfäule von Gurken; Gurkensamen, 200 kg/ha Wirkstoff): 85,1% | Entwicklung von Krankheiten in % (Wurzelfäule von Gurken; Wurzelfäule von Gurken, 200 kg/ha Wirkstoff): 4,0% | Myzelhemmung in % (Penicillium chrysogenum; Präparatkonzentration 0,0015 %): 10% | Myzelhemmung in % (Penicillium chrysogenum; Präparatkonzentration 0,003 %): 40% | Myzelhemmung in % (Penicillium chrysogenum; Präparatkonzentration 0,006 %): 80% | Myzelhemmung in % (Penicillium chrysogenum; Präparatkonzentration 0,012 %): 100% | Myzelhemmung in % (Acremonium cowum; Präparatkonzentration 0,0015 %): 40% | Myzelhemmung in % (Acremonium cowum; Präparatkonzentration 0,003 %): 100% | Myzelhemmung in % (Acremonium cowum; Präparatkonzentration 0,006 %): 100% | Myzelhemmung in % (Acremonium cowum; Präparatkonzentration 0,012 %): 100% | Myzelhemmung in % ([1]; Präparatkonzentration 0,0015 %): 100% | Myzelhemmung in % ([1]; Präparatkonzentration 0,003 %): 100% | Myzelhemmung in % ([1]; Präparatkonzentration 0,006 %): 100% | Myzelhemmung in % ([1]; Präparatkonzentration 0,012 %): 100% | Myzelhemmung in % (Cladosporium resinae; Präparatkonzentration 0,0015 %): 37,5% | Myzelhemmung in % (Cladosporium resinae; Präparatkonzentration 0,003 %): 100% | Myzelhemmung in % (Cladosporium resinae; Präparatkonzentration 0,006 %): 100% | Myzelhemmung in % (Cladosporium resinae; Präparatkonzentration 0,012 %): 100% | Myzelhemmung in % (Geotrichum candidum Link; Präparatkonzentration 0,0015 %): 29% | Myzelhemmung in % (Geotrichum candidum Link; Präparatkonzentration 0,003 %): 100% | Myzelhemmung in % (Geotrichum candidum Link; Präparatkonzentration 0,006 %): 100% | Myzelhemmung in % (Geotrichum candidum Link; Präparatkonzentration 0,012 %): 100% | Myzelhemmung in % (Acremonium charticola; Präparatkonzentration 0,0015 %): 50% | Myzelhemmung in % (Acremonium charticola; Präparatkonzentration 0,003 %): 100% | Myzelhemmung in % (Acremonium charticola; Präparatkonzentration 0,006 %): 100% | Myzelhemmung in % (Acremonium charticola; Präparatkonzentration 0,012 %): 100% | Myzelhemmung in % (Oidium Sp.; Präparatkonzentration 0,0015 %): 80% | Myzelhemmung in % (Oidium Sp.; Präparatkonzentration 0,003 %): 100% | Myzelhemmung in % (Oidium Sp.; Präparatkonzentration 0,006 %): 100% | Myzelhemmung in % (Oidium Sp.; Präparatkonzentration 0,012 %): 100% | Myzelhemmung in % (Walrotiela subiculesa; Präparatkonzentration 0,0015 %): 52% | Myzelhemmung in % (Walrotiela subiculesa; Präparatkonzentration 0,003 %): 100% | Myzelhemmung in % (Walrotiela subiculesa; Präparatkonzentration 0,006 %): 100% | Myzelhemmung in % (Walrotiela subiculesa; Präparatkonzentration 0,012 %): 100% | Myzelhemmung in % (Penicillium charlesii; Präparatkonzentration 0,0015 %): 90% | Myzelhemmung in % (Penicillium charlesii; Präparatkonzentration 0,003 %): 100% | Myzelhemmung in % (Penicillium charlesii; Präparatkonzentration 0,006 %): 100% | Myzelhemmung in % (Penicillium charlesii; Präparatkonzentration 0,012 %): 100% | Mortalität von Larven der Fichtenböcke (Larven von Fichtenböcken; Wirkungsdauer 1 Stunde): 10% | Mortalität von Larven der Fichtenböcke (Larven von Fichtenböcken; Wirkungsdauer 24 Stunden): 88% | Mortalität von Larven der Fichtenböcke (Larven von Fichtenböcken; Wirkungsdauer 48 Stunden): 100% | Myzelhemmung in % (Aspergillus niger; Tabelle 7): 90% | Myzelhemmung in % (Aspergillus niger; Tabelle 8): 90% | Myzelhemmung in % (Fusarium moniliforme): 100% | Myzelhemmung in % (Fusarium sambucinum): 100% | LD50 [2]: 1120 ± 266 mg/kg | Löslichkeit in Wasser [3]: wasserunlöslich | Myzelhemmung in % (Paecilomyces varioti): 100% | Myzelhemmung in % (Penicillium funiculosum): 100% | Myzelhemmung in % (Stereum hirsutum): 100% | Konzentrationen, welche das Bakterienwachstum völlig (100 %) hemmen (Escherichia): 0,05% | Konzentrationen, welche das Bakterienwachstum völlig (100 %) hemmen (Micrococcus): 0,05% | Konzentrationen, welche das Bakterienwachstum völlig (100 %) hemmen (Pseudomonas): 0,05% | Konzentrationen, welche das Bakterienwachstum völlig (100 %) hemmen (Bacillus): 0,05% | Myzelhemmung in % (Sphaeropsis malorum): 100% | Myzelhemmung in % (Rhizoctonia solani): 100%
